Laboratory results as given in US8883827B2, “Azole derivatives as WTN pathway inhibitors” (Oslo University Hospital HF, priority 2009, dated 2014).

Key:
[1] = test system: HeLa (cervical adenocarcinoma) cells; assay: MTS cell growth assay (Example 27); assay type: cell-based; settings: 72 h
Procedure: (§1) 3000 cells were seeded on 96 well plates in quadruplicates for each sample. The following day, cell culture medium was mixed with compound No. 1 in various concentrations or with 0.5% DMSO vehicle (control) and added to the wells.
(§2) Eight wells of seeded control cells, defining incubation time 0 (t0), were incubated with 20 μl substrate in 100 μl phenol-free D-MEM (Invitrogen) for 3 hours, as described in the CellTiter 96® AQueous Non-Radioactive Cell Proliferation Assay (MTS) protocol (Promega). The A490 value was recorded.
(§3) Samples were measured after 72 hours. The following formula was used to determine the single well relative A490 sample values: ((Sample A490−Average A490 to)×100)/(Average A490 0.5% DMSO control−Average A490 t0).

MeWo (melanoma) cells = assay: MTS cell growth assay (Example 27); assay type: cell-based; settings: 72 h
Procedure: as §1, §2, §3

[2] = test system: THLE2 (hepatocytes) cells; assay: MTS cell growth assay (Example 27); assay type: cell-based; settings: 72 h
Procedure: as §1, §2, §3

PTPN22(h) = biological target: T1, PTPN22(h) (Homo sapiens, UniProt Q9Y2R2); assay: Phosphatase screen; assay type: biochemical; settings: 0.1% DMSO control = 100%
T1 construct: purchased Millipore (KinaseProfiler service)

TMDP(h) = biological target: T2, TMDP(h) (Homo sapiens, UniProt Q9UII6); assay: Phosphatase screen; assay type: biochemical; settings: 0.1% DMSO control = 100%
T2 construct: purchased Millipore (KinaseProfiler service)

Abl(h) = biological target: T3, Abl(h) (Homo sapiens, UniProt P00519); assay: Kinase screen; assay type: biochemical; settings: 0.1% DMSO control = 100%
T3 construct: purchased Millipore (KinaseProfiler service)

ALK(h) = biological target: T4, ALK(h) (Homo sapiens, UniProt Q9UM73); assay: Kinase screen; assay type: biochemical; settings: 0.1% DMSO control = 100%
T4 construct: purchased Millipore (KinaseProfiler service)

CHK1(h) = biological target: T5, CHK1(h) (Homo sapiens, UniProt O14757); assay: Kinase screen; assay type: biochemical; settings: 0.1% DMSO control = 100%
T5 construct: purchased Millipore (KinaseProfiler service)

c-RAF(h) = biological target: T6, c-RAF(h) (Homo sapiens, UniProt P04049); assay: Kinase screen; assay type: biochemical; settings: 0.1% DMSO control = 100%
T6 construct: purchased Millipore (KinaseProfiler service)

GRK5(h) = biological target: T7, GRK5(h) (Homo sapiens, UniProt P34947); assay: Kinase screen; assay type: biochemical; settings: 0.1% DMSO control = 100%
T7 construct: purchased Millipore (KinaseProfiler service)

GSK3β(h) = biological target: T8, GSK3β(h) (Homo sapiens, UniProt P49841); assay: Kinase screen; assay type: biochemical; settings: 0.1% DMSO control = 100%
T8 construct: purchased Millipore (KinaseProfiler service)

IKKα(h) = biological target: T9, IKKα(h) (Homo sapiens, UniProt O15111); assay: Kinase screen; assay type: biochemical; settings: 0.1% DMSO control = 100%
T9 construct: purchased Millipore (KinaseProfiler service)

LOK(h) = biological target: T10, LOK(h) (Homo sapiens, UniProt O94804); assay: Kinase screen; assay type: biochemical; settings: 0.1% DMSO control = 100%
T10 construct: purchased Millipore (KinaseProfiler service)

Lyn(h) = biological target: T11, Lyn(h) (Homo sapiens, UniProt P07948); assay: Kinase screen; assay type: biochemical; settings: 0.1% DMSO control = 100%
T11 construct: purchased Millipore (KinaseProfiler service)

MSK2(h) = biological target: T12, MSK2(h) (Homo sapiens, UniProt O75676); assay: Kinase screen; assay type: biochemical; settings: 0.1% DMSO control = 100%
T12 construct: purchased Millipore (KinaseProfiler service)

PAK2(h) = biological target: T13, PAK2(h) (Homo sapiens, UniProt Q13177); assay: Kinase screen; assay type: biochemical; settings: 0.1% DMSO control = 100%
T13 construct: purchased Millipore (KinaseProfiler service)

PDGFRβ(h) = biological target: T14, PDGFRβ(h) (Homo sapiens, UniProt P09619); assay: Kinase screen; assay type: biochemical; settings: 0.1% DMSO control = 100%
T14 construct: purchased Millipore (KinaseProfiler service)

Rsk1(h) = biological target: T15, Rsk1(h) (Homo sapiens, UniProt Q15418); assay: Kinase screen; assay type: biochemical; settings: 0.1% DMSO control = 100%
T15 construct: purchased Millipore (KinaseProfiler Service)

SRPK1(h) = biological target: T16, SRPK1(h) (Homo sapiens, UniProt Q96SB4); assay: Kinase screen; assay type: biochemical; settings: 0.1% DMSO control = 100%
T16 construct: purchased Millipore (KinaseProfiler Service)

T6 sequence (P04049 whole entry): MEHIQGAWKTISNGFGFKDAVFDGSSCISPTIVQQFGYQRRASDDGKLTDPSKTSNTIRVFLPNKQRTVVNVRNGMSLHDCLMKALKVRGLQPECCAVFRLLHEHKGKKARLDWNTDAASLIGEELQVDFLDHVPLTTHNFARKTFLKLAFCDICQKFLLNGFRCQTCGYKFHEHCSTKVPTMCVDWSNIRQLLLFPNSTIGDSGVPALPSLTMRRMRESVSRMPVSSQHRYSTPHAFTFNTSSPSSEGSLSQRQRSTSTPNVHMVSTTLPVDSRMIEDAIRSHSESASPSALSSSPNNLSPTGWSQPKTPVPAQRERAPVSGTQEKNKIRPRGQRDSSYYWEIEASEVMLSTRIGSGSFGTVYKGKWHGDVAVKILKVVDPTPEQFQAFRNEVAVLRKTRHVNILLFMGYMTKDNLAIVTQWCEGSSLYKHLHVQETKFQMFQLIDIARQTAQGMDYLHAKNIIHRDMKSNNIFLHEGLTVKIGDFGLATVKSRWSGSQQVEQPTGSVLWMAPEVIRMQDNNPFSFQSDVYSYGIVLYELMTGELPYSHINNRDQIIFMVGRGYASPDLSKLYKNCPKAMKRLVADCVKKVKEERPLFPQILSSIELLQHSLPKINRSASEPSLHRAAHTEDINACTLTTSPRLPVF
T3 sequence (P00519 whole entry): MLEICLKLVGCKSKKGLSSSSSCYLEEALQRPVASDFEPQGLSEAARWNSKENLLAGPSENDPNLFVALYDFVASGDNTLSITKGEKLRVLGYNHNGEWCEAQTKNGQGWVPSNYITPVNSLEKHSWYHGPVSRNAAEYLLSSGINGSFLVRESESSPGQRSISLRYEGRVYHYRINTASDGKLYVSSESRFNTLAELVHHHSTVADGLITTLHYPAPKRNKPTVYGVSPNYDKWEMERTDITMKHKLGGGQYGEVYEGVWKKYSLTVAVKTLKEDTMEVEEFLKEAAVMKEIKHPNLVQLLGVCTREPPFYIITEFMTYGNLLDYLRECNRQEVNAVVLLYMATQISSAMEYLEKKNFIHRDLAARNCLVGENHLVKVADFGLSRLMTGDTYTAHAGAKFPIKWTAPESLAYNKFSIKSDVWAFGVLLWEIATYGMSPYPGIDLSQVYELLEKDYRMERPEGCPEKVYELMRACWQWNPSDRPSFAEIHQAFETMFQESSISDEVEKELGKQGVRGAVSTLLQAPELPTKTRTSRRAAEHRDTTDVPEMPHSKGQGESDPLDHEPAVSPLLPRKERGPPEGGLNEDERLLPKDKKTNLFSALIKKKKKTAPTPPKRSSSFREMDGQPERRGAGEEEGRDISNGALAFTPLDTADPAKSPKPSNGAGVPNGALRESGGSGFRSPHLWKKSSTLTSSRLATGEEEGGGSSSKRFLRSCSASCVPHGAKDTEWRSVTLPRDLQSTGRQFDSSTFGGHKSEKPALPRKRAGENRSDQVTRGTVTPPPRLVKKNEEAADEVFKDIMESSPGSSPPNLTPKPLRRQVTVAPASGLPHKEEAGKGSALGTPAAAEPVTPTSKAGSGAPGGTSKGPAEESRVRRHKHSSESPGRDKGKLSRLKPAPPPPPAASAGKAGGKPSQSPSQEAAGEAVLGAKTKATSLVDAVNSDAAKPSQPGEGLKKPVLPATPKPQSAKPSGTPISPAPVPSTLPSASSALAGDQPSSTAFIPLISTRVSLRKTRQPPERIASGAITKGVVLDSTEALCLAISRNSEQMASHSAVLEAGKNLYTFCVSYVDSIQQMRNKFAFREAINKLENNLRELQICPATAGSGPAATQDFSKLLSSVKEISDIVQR
T5 sequence (O14757 whole entry): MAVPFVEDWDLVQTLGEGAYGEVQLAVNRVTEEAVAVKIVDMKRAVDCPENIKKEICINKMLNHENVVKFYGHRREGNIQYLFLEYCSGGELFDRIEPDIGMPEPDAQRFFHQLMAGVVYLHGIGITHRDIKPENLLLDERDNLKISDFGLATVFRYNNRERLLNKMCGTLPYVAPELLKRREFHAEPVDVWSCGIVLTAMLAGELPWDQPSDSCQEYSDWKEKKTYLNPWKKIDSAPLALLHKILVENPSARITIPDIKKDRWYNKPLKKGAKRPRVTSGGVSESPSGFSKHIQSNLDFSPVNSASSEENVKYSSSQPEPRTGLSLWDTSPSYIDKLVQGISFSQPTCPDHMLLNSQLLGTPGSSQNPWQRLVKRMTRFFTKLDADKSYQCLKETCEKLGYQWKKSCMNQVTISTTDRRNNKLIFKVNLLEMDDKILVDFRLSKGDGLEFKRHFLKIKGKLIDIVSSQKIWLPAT
T11 sequence (P07948 whole entry): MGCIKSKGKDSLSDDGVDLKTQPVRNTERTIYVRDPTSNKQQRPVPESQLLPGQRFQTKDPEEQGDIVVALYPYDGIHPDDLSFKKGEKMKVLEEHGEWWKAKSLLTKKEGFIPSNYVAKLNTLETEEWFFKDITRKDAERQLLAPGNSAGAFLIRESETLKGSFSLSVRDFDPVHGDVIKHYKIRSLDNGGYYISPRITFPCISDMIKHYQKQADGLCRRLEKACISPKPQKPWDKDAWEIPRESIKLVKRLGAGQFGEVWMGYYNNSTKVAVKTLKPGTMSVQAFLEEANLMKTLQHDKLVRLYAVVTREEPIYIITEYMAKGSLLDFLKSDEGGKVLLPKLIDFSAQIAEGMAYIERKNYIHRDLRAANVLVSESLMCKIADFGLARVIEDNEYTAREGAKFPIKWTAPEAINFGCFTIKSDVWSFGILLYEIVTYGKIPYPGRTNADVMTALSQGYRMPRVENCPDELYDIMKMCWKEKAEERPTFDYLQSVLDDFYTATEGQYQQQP
T1 sequence (Q9Y2R2 whole entry): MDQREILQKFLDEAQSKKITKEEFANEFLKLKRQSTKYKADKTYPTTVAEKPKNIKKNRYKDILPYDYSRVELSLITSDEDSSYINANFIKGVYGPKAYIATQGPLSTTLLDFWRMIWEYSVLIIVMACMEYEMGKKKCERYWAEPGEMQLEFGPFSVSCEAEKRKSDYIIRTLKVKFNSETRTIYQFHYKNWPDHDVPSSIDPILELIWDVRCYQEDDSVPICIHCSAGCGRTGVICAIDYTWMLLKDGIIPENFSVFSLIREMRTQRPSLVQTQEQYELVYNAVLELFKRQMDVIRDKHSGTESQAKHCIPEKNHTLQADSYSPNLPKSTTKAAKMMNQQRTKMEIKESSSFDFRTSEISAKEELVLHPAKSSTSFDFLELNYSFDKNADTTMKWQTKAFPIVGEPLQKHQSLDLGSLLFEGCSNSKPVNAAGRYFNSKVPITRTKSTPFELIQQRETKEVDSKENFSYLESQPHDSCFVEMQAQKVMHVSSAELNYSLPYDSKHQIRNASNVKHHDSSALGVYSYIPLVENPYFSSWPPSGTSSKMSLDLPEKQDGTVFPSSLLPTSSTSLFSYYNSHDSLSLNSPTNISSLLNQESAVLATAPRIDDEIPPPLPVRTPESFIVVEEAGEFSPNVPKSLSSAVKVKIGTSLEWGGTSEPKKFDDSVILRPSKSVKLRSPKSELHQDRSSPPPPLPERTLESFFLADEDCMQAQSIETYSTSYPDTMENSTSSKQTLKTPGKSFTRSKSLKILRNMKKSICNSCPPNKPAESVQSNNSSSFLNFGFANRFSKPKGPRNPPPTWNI
T10 sequence (O94804 whole entry): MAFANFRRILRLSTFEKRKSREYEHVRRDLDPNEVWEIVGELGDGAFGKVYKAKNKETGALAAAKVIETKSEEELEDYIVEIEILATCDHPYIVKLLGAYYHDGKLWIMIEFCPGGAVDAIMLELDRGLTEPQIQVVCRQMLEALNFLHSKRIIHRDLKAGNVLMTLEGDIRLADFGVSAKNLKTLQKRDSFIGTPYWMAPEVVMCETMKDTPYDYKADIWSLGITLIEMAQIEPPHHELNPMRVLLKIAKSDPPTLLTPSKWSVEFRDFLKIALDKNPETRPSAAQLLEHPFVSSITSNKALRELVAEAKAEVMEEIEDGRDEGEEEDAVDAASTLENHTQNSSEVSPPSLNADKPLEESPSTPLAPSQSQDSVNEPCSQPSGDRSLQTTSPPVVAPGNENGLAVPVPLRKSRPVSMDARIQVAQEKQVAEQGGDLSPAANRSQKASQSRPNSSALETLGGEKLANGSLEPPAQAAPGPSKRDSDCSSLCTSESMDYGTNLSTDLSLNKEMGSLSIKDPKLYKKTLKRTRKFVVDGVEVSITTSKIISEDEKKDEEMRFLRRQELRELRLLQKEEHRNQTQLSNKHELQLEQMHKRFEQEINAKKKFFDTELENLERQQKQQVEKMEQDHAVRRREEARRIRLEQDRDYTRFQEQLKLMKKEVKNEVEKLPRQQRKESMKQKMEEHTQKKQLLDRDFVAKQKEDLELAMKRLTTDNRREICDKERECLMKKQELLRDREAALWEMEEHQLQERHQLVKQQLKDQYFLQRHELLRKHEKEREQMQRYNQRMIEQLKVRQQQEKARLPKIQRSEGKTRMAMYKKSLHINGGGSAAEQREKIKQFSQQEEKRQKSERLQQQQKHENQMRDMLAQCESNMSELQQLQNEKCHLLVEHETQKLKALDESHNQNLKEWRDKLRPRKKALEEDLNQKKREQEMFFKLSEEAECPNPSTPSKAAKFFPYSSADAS
T8 sequence (P49841 whole entry): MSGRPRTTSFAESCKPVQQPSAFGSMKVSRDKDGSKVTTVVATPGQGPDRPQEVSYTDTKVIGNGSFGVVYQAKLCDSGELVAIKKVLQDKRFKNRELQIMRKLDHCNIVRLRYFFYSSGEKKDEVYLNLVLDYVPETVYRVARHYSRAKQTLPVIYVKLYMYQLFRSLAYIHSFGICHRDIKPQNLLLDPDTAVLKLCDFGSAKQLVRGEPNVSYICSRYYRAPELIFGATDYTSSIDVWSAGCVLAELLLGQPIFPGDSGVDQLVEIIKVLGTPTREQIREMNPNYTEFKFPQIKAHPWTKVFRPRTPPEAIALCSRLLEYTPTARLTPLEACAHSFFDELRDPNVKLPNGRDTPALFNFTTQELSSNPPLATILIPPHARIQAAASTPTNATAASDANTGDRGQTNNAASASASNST

What does the source list for `COc1ccc(-n2c(SCc3nc(-c4ccc(C)cc4)no3)nnc2-c2ccncc2)cc1` [Compound 1]?
growth reduction [1]: only a minor growth reduction; growth reduction (MeWo (melanoma) cells): only a minor growth reduction; growth reduction [2]: only a minor growth reduction; activity at 10 µM (PTPN22(h)): 99%; activity at 10 µM (TMDP(h)): 97%; activity at 10 µM (Abl(h)): 93%; activity at 10 µM (ALK(h)): 91%; activity at 10 µM (CHK1(h)): 106%; activity at 10 µM (c-RAF(h)): 98%; activity at 10 µM (GRK5(h)): 104%; activity at 10 µM (GSK3β(h)): 90%; activity at 10 µM (IKKα(h)): 109%; activity at 10 µM (LOK(h)): 109%; activity at 10 µM (Lyn(h)): 109%; activity at 10 µM (MSK2(h)): 108%; activity at 10 µM (PAK2(h)): 99%; activity at 10 µM (PDGFRβ(h)): 129%; activity at 10 µM (Rsk1(h)): 108%; activity at 10 µM (SRPK1(h)): 96%
